Assay results from ChEMBL document CHEMBL1201862, “PubChem BioAssay data set” (2004).
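These data come from cells grown in 96-well plates and exposed to compound for 48 hours at five concentrations. The concentration for 50% growth inhibition is given as GI50.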 Activity calls are given as the source filed them. No stated cut-off is given here; in the data, active = GI50 up to about 1.1 µM and inactive = higher.

Key:
Assay in all cases: inhibition of tumour cell growth, NCI panel, 48 h
Malme-3M = tested on: Malme-3M
SK-OV-3 = tested on: SK-OV-3
SNB-75 = tested on: SNB-75
SNB-19 = tested on: SNB-19
OVCAR-5 = tested on: OVCAR-5
HT-29 = tested on: HT-29
SK-MEL-5 = tested on: SK-MEL-5
U-251 = tested on: U-251
SK-MEL-28 = tested on: SK-MEL-28
IGROV-1 = tested on: IGROV-1
UACC-257 = tested on: UACC-257
SN12C = tested on: SN12C
NCI-H522 = tested on: NCI-H522
ACHN = tested on: ACHN
786-0 = tested on: 786-0
HOP-92 = tested on: HOP-92
SF-539 = tested on: SF-539
NCI-H226 = tested on: NCI-H226
SR = tested on: SR

SMILES | GI50 (Malme-3M) | GI50 (SK-OV-3) | GI50 (SNB-75) | GI50 (SNB-19) | GI50 (OVCAR-5) | GI50 (HT-29) | GI50 (SK-MEL-5) | GI50 (U-251) | GI50 (SK-MEL-28) | GI50 (IGROV-1) | GI50 (UACC-257) | GI50 (SN12C) | GI50 (NCI-H522) | GI50 (ACHN) | GI50 (786-0) | GI50 (HOP-92) | GI50 (SF-539) | GI50 (NCI-H226) | GI50 (SR)
COc1ccc(/C=C2\Cc3ccccc3C2=O)cc1OC | > 100 µM (inactive) | > 100 µM (inactive) | > 10 µM (inactive) | > 100 µM (inactive) | > 100 µM (inactive) | > 100 µM (inactive) | 63.4 µM (inactive) | > 100 µM (inactive) | > 100 µM (inactive) | > 100 µM (inactive) | > 100 µM (inactive) | > 100 µM (inactive) | 70.6 µM (inactive) | > 100 µM (inactive) | > 100 µM (inactive) |  |  |  | 
C=C1C(=O)O[C@H]2C[C@@H](C)[C@@H]3CC(=O)OC[C@@]3(C)CC12 (some centres not stated) | 17.9 µM (inactive) | 97.7 µM (inactive) | 30.1 µM (inactive) | 53.1 µM (inactive) |  | 17.5 µM (inactive) | 34.3 µM (inactive) | 97.3 µM (inactive) | 19.7 µM (inactive) | 51.6 µM (inactive) |  | 21.6 µM (inactive) | 3.56 µM (inactive) | 21.7 µM (inactive) | 21.2 µM (inactive) | 16.1 µM (inactive) | 21.9 µM (inactive) |  | 
COP(=O)(CP(=O)(OC)OCCC(C)CCC=C(C)C)OC (configuration not stated) | > 100 µM (inactive) | > 100 µM (inactive) | > 100 µM (inactive) | > 100 µM (inactive) | > 100 µM (inactive) |  | > 100 µM (inactive) | 26.7 µM (inactive) | > 100 µM (inactive) | > 100 µM (inactive) | > 100 µM (inactive) | > 100 µM (inactive) | > 100 µM (inactive) | > 100 µM (inactive) | > 100 µM (inactive) |  | > 100 µM (inactive) | > 100 µM (inactive) | 
CC(C)=CCC/C(C)=C/CC/C(C)=C/CCC1(C)CCC([C@H](C)C(=O)O)OO1.CC1=C(CC/C(C)=C/CCC2(C)CCC([C@H](C)C(=O)O)OO2)C(C)(C)CCC1 (some centres not stated) | > 100 µM (inactive) |  | > 100 µM (inactive) | > 100 µM (inactive) | > 100 µM (inactive) | > 100 µM (inactive) |  | > 100 µM (inactive) | > 100 µM (inactive) |  | > 100 µM (inactive) | > 100 µM (inactive) | > 100 µM (inactive) | > 100 µM (inactive) | > 100 µM (inactive) | > 100 µM (inactive) | > 100 µM (inactive) | > 100 µM (inactive) | 
O=C1N=C2N=C(c3ccc(Cl)cc3)N(c3ccc(Cl)cc3)N2Sc2ccccc21 | > 100 µM (inactive) | > 100 µM (inactive) | > 100 µM (inactive) | 47.2 µM (inactive) | > 100 µM (inactive) | > 100 µM (inactive) | > 100 µM (inactive) | 23.5 µM (inactive) | > 100 µM (inactive) | > 100 µM (inactive) | > 100 µM (inactive) | > 100 µM (inactive) | > 100 µM (inactive) | > 100 µM (inactive) | > 100 µM (inactive) | 86.5 µM (inactive) | > 100 µM (inactive) | > 100 µM (inactive) | 
CCC1=CCN(c2cc(C)ccn2)OC1c1ccccc1 (configuration not stated) | 26.5 µM (inactive) | 71.3 µM (inactive) | 45.6 µM (inactive) | 81.3 µM (inactive) | > 100 µM (inactive) | 29.3 µM (inactive) |  | 22.8 µM (inactive) | 23.9 µM (inactive) | 67.8 µM (inactive) | 33.3 µM (inactive) | 34.6 µM (inactive) | 18.5 µM (inactive) | 45.5 µM (inactive) | 45.9 µM (inactive) |  | > 100 µM (inactive) | > 100 µM (inactive) | 21.1 µM (inactive)
CC1(C2CCC3(C)C(C2)C3Sc2ccccc2)OCCO1 (configuration not stated) | 18.3 µM (inactive) | 33 µM (inactive) | 54.6 µM (inactive) | 27 µM (inactive) | 20.5 µM (inactive) | 17.5 µM (inactive) | 17.3 µM (inactive) | 19.8 µM (inactive) | 24.9 µM (inactive) | 35.7 µM (inactive) | 17.5 µM (inactive) | 20.4 µM (inactive) | 18.9 µM (inactive) | 20.7 µM (inactive) | 15.1 µM (inactive) | 23.3 µM (inactive) | 20.8 µM (inactive) |  | 
CC1CC(c2ccc([N+](=O)[O-])cc2)=Nc2ccccc2[S+]1[O-] (configuration not stated) |  | 23 µM (inactive) | 21.4 µM (inactive) | 18.2 µM (inactive) | 26.5 µM (inactive) | 12.9 µM (inactive) | 15.5 µM (inactive) | 13.6 µM (inactive) | 20 µM (inactive) | 15.6 µM (inactive) | 20.2 µM (inactive) | 37.6 µM (inactive) | 12.2 µM (inactive) | 21.3 µM (inactive) |  | 33.1 µM (inactive) | 21.8 µM (inactive) | 29.2 µM (inactive) | 22.5 µM (inactive)
COc1cc(OC)cc(N2CCC(c3c(N)nc(N)nc3Cl)CC2)c1 | 31 µM (inactive) | > 100 µM (inactive) | 47.6 µM (inactive) | > 100 µM (inactive) | > 100 µM (inactive) |  | 24.8 µM (inactive) |  | 52.8 µM (inactive) | > 100 µM (inactive) | 43.7 µM (inactive) | > 100 µM (inactive) | 41.3 µM (inactive) | 70.5 µM (inactive) | > 100 µM (inactive) | 48.4 µM (inactive) |  |  | 
CC1(C)C(=O)OC(n2cc(F)c(=O)[nH]c2=O)C1=O (configuration not stated) | > 100 µM (inactive) | > 100 µM (inactive) | > 100 µM (inactive) | > 100 µM (inactive) | > 100 µM (inactive) | > 100 µM (inactive) |  | > 100 µM (inactive) | > 100 µM (inactive) |  | > 100 µM (inactive) | > 100 µM (inactive) | > 100 µM (inactive) | > 100 µM (inactive) | > 100 µM (inactive) | 26.5 µM (inactive) | 43.9 µM (inactive) | > 100 µM (inactive) | 
N#CC1(Cc2ccccc2)CCCCN1C(=O)c1ccccc1 (configuration not stated) | > 100 µM (inactive) | > 100 µM (inactive) | > 100 µM (inactive) | > 100 µM (inactive) | > 100 µM (inactive) | > 100 µM (inactive) | > 100 µM (inactive) | > 100 µM (inactive) | > 100 µM (inactive) | > 100 µM (inactive) | > 100 µM (inactive) | > 100 µM (inactive) |  | > 100 µM (inactive) | > 100 µM (inactive) | > 100 µM (inactive) | > 100 µM (inactive) |  | 44.7 µM (inactive)
C=CCCOC(=O)CO[N+](=O)[O-] | > 100 µM (inactive) | > 100 µM (inactive) | > 100 µM (inactive) | > 100 µM (inactive) | > 100 µM (inactive) | > 100 µM (inactive) |  | > 100 µM (inactive) | > 100 µM (inactive) | > 100 µM (inactive) | > 100 µM (inactive) | > 100 µM (inactive) | > 100 µM (inactive) | > 100 µM (inactive) | > 100 µM (inactive) |  | > 100 µM (inactive) | > 100 µM (inactive) | > 100 µM (inactive)
Cc1cc2c(=O)c3ccccc3[nH]c2c(C(N)=O)c1C | > 100 µM (inactive) | > 100 µM (inactive) | > 100 µM (inactive) | > 100 µM (inactive) | > 100 µM (inactive) | > 100 µM (inactive) | > 100 µM (inactive) | > 100 µM (inactive) | > 100 µM (inactive) | > 100 µM (inactive) | > 100 µM (inactive) | > 100 µM (inactive) | > 100 µM (inactive) | > 100 µM (inactive) | > 100 µM (inactive) |  | > 100 µM (inactive) | > 100 µM (inactive) | 
CCOC(=O)CP(=S)(S)c1ccccc1 (configuration not stated) | > 100 µM (inactive) | > 100 µM (inactive) |  | > 100 µM (inactive) | > 100 µM (inactive) | > 100 µM (inactive) | > 100 µM (inactive) | > 100 µM (inactive) | > 100 µM (inactive) |  | > 100 µM (inactive) | > 100 µM (inactive) | > 100 µM (inactive) | > 100 µM (inactive) | > 100 µM (inactive) | > 100 µM (inactive) | > 100 µM (inactive) | > 100 µM (inactive) | > 100 µM (inactive)
C=CC1[C@H]2COC(C)(C)O[C@@H]2CC(=O)C1(C)C (some centres not stated) | > 100 µM (inactive) |  | > 100 µM (inactive) | > 100 µM (inactive) | > 100 µM (inactive) | > 100 µM (inactive) |  | > 100 µM (inactive) | > 100 µM (inactive) |  | > 100 µM (inactive) | > 100 µM (inactive) | > 100 µM (inactive) | 94 µM (inactive) | 72.9 µM (inactive) | > 100 µM (inactive) | > 100 µM (inactive) | > 100 µM (inactive) | 
CC1CC2OC(=O)CC2C[C@@H]1O[Si](C)(C)C(C)(C)C (some centres not stated) | 65.3 µM (inactive) | > 100 µM (inactive) | 51.4 µM (inactive) | > 100 µM (inactive) | > 100 µM (inactive) | 40.5 µM (inactive) | 27 µM (inactive) |  |  | 74.5 µM (inactive) | 61.8 µM (inactive) | > 100 µM (inactive) |  | 43.9 µM (inactive) | 80.9 µM (inactive) | 3.68 µM (inactive) | > 100 µM (inactive) |  | 
C[C@@H]1C[C@H]2[C@@H]3CCC4=CC(=O)C=C[C@]4(C)[C@@]3(F)[C@@H](O)C[C@]2(C)[C@@]1(O)C(=O)CO [DEXAMETHASONE] | > 100 µM (inactive) | > 100 µM (inactive) |  |  | > 100 µM (inactive) | > 100 µM (inactive) | > 100 µM (inactive) |  | > 100 µM (inactive) | > 100 µM (inactive) | > 100 µM (inactive) | < 0.01 µM (active) | > 100 µM (inactive) | > 100 µM (inactive) | > 100 µM (inactive) | > 100 µM (inactive) |  | > 100 µM (inactive) | 49.3 µM (inactive)
